By melting point is commonly meant the temperature of the solid-liquid transition. One may read the EC50 as the concentration giving half of the maximal effect. As a reminder, the CC50 is the concentration that lowers cell viability or growth by half. A high value points to lower toxicity to the cells.

The values below come from publication PMC7396997, “Discovery of 4-Anilinoquinolinylchalcone Derivatives as Potential NRF2 Activators” (Molecules, 2020).

Several values for one entry are separate records, joined by “and”; a condition that tells them apart may be missing. Equal entries are not always repeated. Structures can show the parent of a compound that is named as a salt. Where two headings read alike, the source gives them in different places.

For one series, the system named is NRF2. Description: ARE-driven luciferase reporter assay (NRF2 activity) in HaCaT/ARE stable cells. The conditions noted are these: for activity at 10 µM: HaCaT, read-out: % of Relative NRF2 Activity in HaCaT Cell; for activity at 10 µM / % of Relative NRF2 Activity in HaCaT Cell: 24 h (b12; method b59 says 18 h), luciferase normalised to cell viability, DMSO control = 100%, 10 μM; for Emax of NRF2 promoter activity / EC50: HaCaT/ARE cells, 18 h, dose-response; for EC50: read-out: EC50 of NRF2 promoter activity. The format is cell-based, human. The text has this: In this study, we used a stable ARE-driven reporter system to screen the potential NRF2 activators.
For orientation: A reporter such as luciferase makes a cellular process visible.

Another series has as its system HaCaT/ARE cells. Description: Cell viability (resazurin) in the reporter screen. Particulars: 10 μM; in % (unit assumed). On the technique in general: Alamar Blue is a resazurin reagent that responds to reducing activity.
Series [1] is described as follows: Cytotoxicity, 72 h resazurin cell viability assay. Particulars: human. The format is cell-based, human. As for the experimental part:
(§1) Cells were seeded in a 96-well plate contained 100 μL culture medium in triplicate and treated with several compounds for 72 h. At the assay time point, resazurin (Cayman Chemical) was added and further incubated for 4 h at 37 °C. Fluorescence of the reduced resazurin was measured as described previously.
(§2) Figure 3 The cytotoxicity of 12b, 13b, and 14b in HaCaT cells. HaCaT cells were treated with indicated concentrations of these three compounds for 72 h. Cell viability was determined by a resazurin assay as described in the Materials and Methods section. Data presented as mean ± SD from three independent experiments.

Another series deals with GCLM and NQO1. Further details: method as in PMID 21539383. Particulars: small intestine; cited from earlier work.
The subject of the next series is HaCaT cells. Description: Cytotoxicity, 72 h resazurin cell viability assay. The format is cell-based, human. As for the experimental part: as §1, §2

Method for HaCaT/ARE cells: Immortalized human keratinocytes HaCaT were cultured in the Dulbecco’s modified Eagle’s medium (DMEM; Gibco BRL, Grand Island, NY, USA) with 10% heat-inactivated fetal bovine serum (HyClone, Logan, UT, USA), penicillin (100 U/mL), and streptomycin (100 μg/mL) in a humidified incubator with 5% CO2. HaCaT/ARE stable cells were grown in DMEM supplemented with 100 μg/mL of hygromycin.
HaCaT/ARE stable cells were seeded (1 × 10^4 cells/well) in a 96 well plate, then were treated with indicated concentrations of compounds for 18 h. At the assay time point, resazurin (Cayman Chemical, Ann Arbor, MI, USA) was added to a final concentration of 0.1 mg/mL and further incubated for 4 h at 37 °C. Fluorescence of the reduced resazurin (ex/em: 530 nm/590 nm) was measured from the culture supernatant by using a Synergy HT Multi-Mode Reader (BioTek, Winooski, VT, USA) to determine cell viability. The cells were then harvested for luciferase activity measurements according to the manufacturer’s protocol (Promega Corporation, Madison, WI, USA). Relative luciferase activity was calculated by normalizing luciferase activity to cell viability, and DMSO solvent control was used as 100% activity.

With `O=C(/C=C/c1cc(Nc2ccccc2)c2ccccc2n1)c1ccccc1` (as salt: hydrochloride) [12a, (E)-1-phenyl-3-[4-(phenylamino)quinolin-2-yl]prop-2-en-1-one], the melting point is 238.5 to 239.2 °C. Compound `CC(=O)c1ccc(Nc2cc(/C=C/C(=O)c3ccccc3)nc3ccccc23)cc1` (as salt: hydrochloride) [12b, (E)-3-{4-[(4-acetylphenyl)amino]quinolin-2-yl}-1-phenylprop-2-en-1-one] returned a melting point of 248.7 to 249.2 °C. Still for that read-out and setting: the same measure for `O=C(O)c1ccc(Nc2cc(/C=C/C(=O)c3ccccc3)nc3ccccc23)cc1` (as salt: hydrochloride) [12c, (E)-4-{[2-(3-oxo-3-phenylprop-1-en-1-yl)quinolin-4-yl]amino}benzoic acid]: 298.3 to 298.9 °C; for `C/C(=N\OCCN)c1ccc(Nc2cc(/C=C/C(=O)c3ccccc3)nc3ccccc23)cc1` (as salt: hydrochloride) [12d]: 200.2 to 201.5 °C; for `C/C(=N\OCCCN(C)C)c1ccc(Nc2cc(/C=C/C(=O)c3ccccc3)nc3ccccc23)cc1` (as salt: hydrochloride) [12e, (E)-3-{4-{{4-{(E)-1-{[3-(dimethylamino)propoxy]imino}ethyl}phenyl}-amino}quinolin-2-yl}-1-phenylprop-2-en-1-one]: 155.6 to 156.6 °C.

In the case of `CCN(CC)CCOC(=O)c1ccc(Nc2cc(/C=C/C(=O)c3ccccc3)nc3ccccc23)cc1` (as salt: hydrochloride) [12h, 2-(Diethylamino)ethyl (E)-4-{[2-(3-oxo-3-phenylprop-1-en-1-yl)quinolin-4-yl]amino}benzoate], the melting point was in the range of 158.7 to 159.3 °C. On the same count and under the same terms, the same measure for `CCN(CC)CCOC(=O)c1ccc(Nc2cc(/C=C/C(=O)c3ccc(F)cc3)nc3ccccc23)cc1` (as salt: hydrochloride) [13h, 2-(Diethylamino)ethyl (E)-4-{{2-[3-(4-fluorophenyl)-3-oxoprop-1-en-1-yl]-quinolin-4-yl}amino}benzoate]: 135.4 to 135.8 °C; for `CCN(CC)CCOC(=O)c1ccc(Nc2cc(/C=C/C(=O)c3ccc(OC)cc3)nc3ccccc23)cc1` (as salt: hydrochloride) [14h, 2-(Diethylamino)ethyl (E)-4-{{2-[3-(4-methoxyphenyl)-3-oxoprop-1-en-1-yl]-quinolin-4-yl}amino}benzoate]: 158.7 to 159.3 °C. For `O=C(/C=C/c1cc(Nc2ccccc2)c2ccccc2n1)c1ccccc1` [12a, (E)-1-phenyl-3-[4-(phenylamino)quinolin-2-yl]prop-2-en-1-one], in the series with NRF2 (Homo sapiens), the activity at 10 µM stood at 7%. Also, the “Cell Viability” value with HaCaT/ARE cells was 67.65 ± 0.6.

Consider `CC(=O)c1ccc(Nc2cc(/C=C/C(=O)c3ccccc3)nc3ccccc23)cc1` [12b, (E)-3-{4-[(4-acetylphenyl)amino]quinolin-2-yl}-1-phenylprop-2-en-1-one], for which the “Emax of NRF2 promoter activity” value in the series with NRF2 is listed as 692.8±53.3%. Further, in the series with NRF2 (Homo sapiens), the activity at 10 µM stood at 394% and the EC50 is 0.85 ± 0.04 µM. In series [1], this compound yielded a CC50 at 72 h of 9.3 µM. Besides, the “Cell Viability” value in the series on HaCaT/ARE cells is 71.2 ± 1.8. Consider `O=C(O)c1ccc(Nc2cc(/C=C/C(=O)c3ccccc3)nc3ccccc23)cc1` [12c, (E)-4-{[2-(3-oxo-3-phenylprop-1-en-1-yl)quinolin-4-yl]amino}benzoic acid], for which, in the series on NRF2 (Homo sapiens), the activity at 10 µM came out at 75%. Also, the “Cell Viability” value with HaCaT/ARE cells is 81.4 ± 0.8.

Regarding `C/C(=N\OCCN)c1ccc(Nc2cc(/C=C/C(=O)c3ccccc3)nc3ccccc23)cc1` [12d], the activity at 10 µM in the series on NRF2 (Homo sapiens) turned out to be 287%. The “Cell Viability” value with HaCaT/ARE cells was determined as 68.4 ± 1.3. The matching figures for `C/C(=N\OCCCN(C)C)c1ccc(Nc2cc(/C=C/C(=O)c3ccccc3)nc3ccccc23)cc1` [12e, (E)-3-{4-{{4-{(E)-1-{[3-(dimethylamino)propoxy]imino}ethyl}phenyl}-amino}quinolin-2-yl}-1-phenylprop-2-en-1-one]: 95% and 69.5 ± 0.9. Regarding `CCN(CC)CCNC(=O)c1ccc(Nc2cc(/C=C/C(=O)c3ccccc3)nc3ccccc23)cc1` [12f], the activity at 10 µM in the series with NRF2 (Homo sapiens) came to 26%. Also, the “Cell Viability” value in the series on HaCaT/ARE cells was determined as 78.8 ± 0.1.

On to `CCN(CC)CCOC(=O)c1ccc(Nc2cc(/C=C/C(=O)c3ccccc3)nc3ccccc23)cc1` [12h, 2-(Diethylamino)ethyl (E)-4-{[2-(3-oxo-3-phenylprop-1-en-1-yl)quinolin-4-yl]amino}benzoate], for which, in the series with HaCaT/ARE cells, the “Cell Viability” value was found to be 71.1 ± 1.2. `CCN(CC)CCNC(=O)c1ccc(Nc2cc(/C=C/C(=O)c3ccc(OC)cc3)nc3ccccc23)cc1` [13f]: the “Cell Viability” value in the series on HaCaT/ARE cells was 88.7 ± 1.9. With `CCN(CC)CCOC(=O)c1ccc(Nc2cc(/C=C/C(=O)c3ccc(F)cc3)nc3ccccc23)cc1` [13h, 2-(Diethylamino)ethyl (E)-4-{{2-[3-(4-fluorophenyl)-3-oxoprop-1-en-1-yl]-quinolin-4-yl}amino}benzoate], the “Cell Viability” value in the series with HaCaT/ARE cells came to 82.7 ± 1.7. Take `C/C(=N\OCCCN(C)C)c1ccc(Nc2cc(/C=C/C(=O)c3ccc(F)cc3)nc3ccccc23)cc1` [14e]: the activity at 10 µM in the series on NRF2 (Homo sapiens) was determined as 193%. In addition, the “Cell Viability” value in the series on HaCaT/ARE cells is 76.7 ± 0.2. For `CCN(CC)CCNC(=O)c1ccc(Nc2cc(/C=C/C(=O)c3ccc(F)cc3)nc3ccccc23)cc1` [14f], in the series with NRF2, the “% of Relative NRF2 Activity in HaCaT Cell” value (“% of Relative NRF2 Activity” for short) is 6.0 ± 0.3%. Also, the activity at 10 µM with NRF2 (Homo sapiens) was 6%. In the series with HaCaT/ARE cells, the “Cell Viability” value stood at 66.3 ± 2.6. Regarding `CCN(CC)CCOC(=O)c1ccc(Nc2cc(/C=C/C(=O)c3ccc(OC)cc3)nc3ccccc23)cc1` [14h, 2-(Diethylamino)ethyl (E)-4-{{2-[3-(4-methoxyphenyl)-3-oxoprop-1-en-1-yl]-quinolin-4-yl}amino}benzoate], the activity at 10 µM in the series on NRF2 (Homo sapiens) stood at 127%. In addition, in the series on HaCaT/ARE cells, the “Cell Viability” value is recorded as 76.8 ± 0.2. Take `COc1ccccc1C(=O)/C=C/c1ccccc1C(F)(F)F` [Compound 1, (E)-1-(2-methoxyphenyl)-3-[2-(trifluoromethyl)phenyl]prop-2-en-1-one]: in the series with GCLM and NQO1, the “expression of GCLM compared to sulforaphane” value is recorded as 3 fold and the “expression of NQO1 compared to sulforaphane” value is listed as 5 fold.

In the case of `COc1ccc(/C=C/C(=O)c2c(O)cc(OC)cc2OC)cc1` [Flavokawain A, reference compound], the “Cell Viability” value in the series with HaCaT/ARE cells turned out to be 95.9 ± 1.6. For the compound `CC(C)(C)c1cc(O)ccc1O` [t-BHQ, tert-Butyl hydroquinone, reference compound], in the series on NRF2, the “% of Relative NRF2 Activity” value was 1880% and 1880.4 ± 97.2%. Besides, in the series with HaCaT/ARE cells, the “Cell Viability” value came out at 97.7 ± 1.5. Turning to “(E)-1-(4-Fluorophenyl)-3-[4-(phenylamino)quinolin-2-yl]prop-2-en-1-one [13a]”, the “% of Relative NRF2 Activity” value in the series on NRF2 is 6% and 5.5 ± 0.17%.

As to “(E)-1-(4-Methoxyphenyl)-3-[4-(phenylamino)quinolin-2-yl]prop-2-en-1-one [14a]”, the “% of Relative NRF2 Activity” value with NRF2 is 7% and 7.1 ± 1.3%. Turning to “(E)-3-{4-[(4-Acetylphenyl)amino]quinolin-2-yl}-1-(4-methoxyphenyl)prop-2-en-1-one [14b]”, in the series on NRF2, the “% of Relative NRF2 Activity” value is 937% and 936.5 ± 39.8%; the “Emax of NRF2 promoter activity” value was 748.5±73.6%; the EC50 came to 1.58 ± 0.15 µM. Besides, the CC50 in the series with HaCaT cells worked out at 28.4 µM. For the compound “(E)-3-{4-{{4-{(E)-1-[(2-Aminoethoxy)imino]ethyl}phenyl}amino}quinolin-2-yl}-1-(4-fluorophenyl)prop-2-en-1-one [13d]”, the “% of Relative NRF2 Activity” value in the series with NRF2 was 1697% and 1697.3 ± 39.8%. Consider “(E)-3-{4-{{4-{(E)-1-[(2-Aminoethoxy)imino]ethyl}phenyl}amino}quinolin-2-yl}-1-(4-methoxyphenyl)prop-2-en-1-one [14d]”, for which the “% of Relative NRF2 Activity” value in the series with NRF2 is 229% and 229.4 ± 68.4%. Take “(E)-3-{4-{{4-{(E)-1-{[2-(Dimethylamino)ethoxy]imino}ethyl}phenyl}-amino}quinolin-2-yl}-1-(4-fluorophenyl)prop-2-en-1-one [13e]”: the “% of Relative NRF2 Activity” value with NRF2 was 2145% and 2144.7 ± 168.6%. Take “(E)-4-({2-[3-(4-Fluorophenyl)-3-oxoprop-1-en-1-yl]quinolin-4-yl}amino)-benzoic acid [13c]”: the “% of Relative NRF2 Activity” value with NRF2 is 147% and 147.3 ± 51.7%. Further, the “Cell Viability” value with HaCaT/ARE cells is on record as 74.5 ± 1.1. As for “(E)-4-{{2-[3-(4-Methoxyphenyl)-3-oxoprop-1-en-1-yl]quinolin-4-yl}-amino}benzoic acid [14c]”, the “% of Relative NRF2 Activity” value in the series with NRF2 was 212% and 212.6 ± 93.6%. Moreover, the “Cell Viability” value in the series with HaCaT/ARE cells stood at 70.8 ± 1.9.

As to “(E)-N-[2-(Diethylamino)ethyl]-4-{{2-[3-(4-fluorophenyl)-3-oxoprop-1-en-1-yl]quinolin-4-yl}amino}benzamide [13g]”, the “% of Relative NRF2 Activity” value with NRF2 was 5% and 5.1 ± 0.42%. Also, the “Cell Viability” value in the series on HaCaT/ARE cells is 78.7 ± 0.5. Regarding “(E)-N-[2-(Diethylamino)ethyl]-4-{{2-[3-(4-methoxyphenyl)-3-oxoprop-1-en-1-yl]quinolin-4-yl}amino}benzamide [14g]”, the “% of Relative NRF2 Activity” value with NRF2 is 5% and 5.1 ± 0.18%. Further, in the series on HaCaT/ARE cells, the “Cell Viability” value came to 77.6 ± 1.5.
